Measurements reported in patent US8409820B2, “Kinase sensors” (Massachusetts Institute of Technology, priority 2009, dated 2013).

Key:
Type in all cases: physicochemical
[1] = Observation of oxidation of the chromophore
[2] = Quantum yield determination (quinine sulphate standard); conditions: for quantum yield Φ: with reference to quinine sulphate, 4 micromolar oxine derivative, 50 mM MgCl2, 20 mM HEPES (pH 7.4)
Protocol: (§1) This example describes the synthesis and screening of Oxn derivatives. A selection of substituted hydroxyquinoline derivatives related to a sulfonamide derivative (FIG. 1, complex 1), but bearing different acceptor groups at position 5 (FIG. 1, complexes 2-7) was prepared using previously described methods. These analogs were screened for fluorescence in the presence of excess Mg^2+ and under buffered aqueous conditions. FIG. 1 lists fluorescence data for compounds 1-7. Spectra were acquired in 150 mM NaCl, 50 mM HEPES (pH 7.4), 25° C. with 10 μM 1-7 and 10 mM MgCl2. Excitation of all species is provided at λmax […].
(§2) The fluorophores were then qualitatively compared in a 96-well plate (transilluminator; λex=365 nm) to identify promising compounds (FIG. 3) and were further subjected to quantitative analysis in a fluorescence plate reader (FIG. 8). In FIG. 8, the quantum yields of selected fluorophores were calculated with reference to quinine sulphate (in […] H2SO4) as a standard (vide infra). Compound 10u has ε355=7905 cm^−1M^−1 (vide infra). The excitation and emission wavelengths of the triazole products (10b-v, λex=360-375 nm, λem=510-530 nm) were improved compared to those for Sox (1, λex=360 nm, λem=485 nm, Φ=0.342, ε355=8,247 cm^−1M^−1). Based on the preliminary screening, selected targets were then synthesized in larger quantities and the quantum yields of the corresponding hydroxyquinoline derivatives were determined. Compared to 10a (Φ=0.033) a 3.5-fold improvement in quantum yield was obtained in the case of the bromide 10u (λex=375 nm, λem=525 nm, Φ=0.111, ε355=7,905 cm^−1M^−1). In view of the fluorescent properties of this derivative, it was chosen for use as a chelation-sensitive fluorophore to prepare probes for mitogen-activated protein kinase-activated protein kinase-2 (MK2), and sarcoma kinase (Src), used as models of Ser/Thr and Tyr kinases, respectively. For the purposes of comparison, the analogous fluorescent peptides containing the original Sox chromophore were also prepared as previously described.
c. Quantum yield determination. The quantum yield (Φ) was determined in 20 mM HEPES (pH 7.4). Quinine sulphate dihydrate (QS, Fluka, puriss. for fluorescence) in 0.1 M H2SO4 was used as a standard (Φ=0.55). A 4 micromolar solution of the corresponding oxine derivative with 50 mM MgCl2 was compared to a 4 micromolar solution of quinine sulfate to assure that the absorbance (A360) is less than 0.05 at identical excitation wavelengths. The following equation was used to calculate the quantum yield: Φ=IAQSΦQS/AIQS where A=A360 and I=integrated fluorescence intensity (λex=360 nm). The calculated Φ assumes that the refractive index of 0.1 M H2SO4 is identical to that of 20 mM HEPES (pH 7.4). […]

[3] = Fluorescence analysis of 8-hydroxyquinoline derivatives in the presence of excess Mg2+ under buffered aqueous conditions; conditions: 10 μM compound; for λem / λex: 10 mM MgCl2, 150 mM NaCl, 50 mM HEPES (pH 7.4), 25° C.
Protocol: as §1
Azide 8 (FIG. 2) was prepared using previously reported methods. […] In the presence of catalytic Cu(I) and ascorbic acid, 8 reacted readily at room temperature with 1-ethynylcyclohexene (9a) in DMF/4-methylpiperidine (8:2) to afford the cycloaddition product 10a in essentially quantitative yield. […] The fluorescence properties of the triazole-substituted quinolines were investigated for the products from the 1,3-dipolar cycloaddition reaction of 8 with 21 additional alkynes (9b-v) (FIG. 2).
as §2
Fluorescence Experiments. • a. Fluorescence analysis of 8-hydroxyquinoline click products. A 96-well microtier plate was used in the experiments for preliminary examination of fluorescence properties. The overall volume in each well was 200 microliters. Individual reactions contained the crude product from the click chemistry reaction (10 micromolar dissolved in DMSO), MgCl2 (10 mM), NaCl (150 mM) and HEPES (50 mM) at 25° C. (pH 7.4). The fluorescence spectra were recorded with fixed excitation at 370 nm and emission at 525 nm. Based on the preliminary screening, selected products were then synthesized in larger quantities and the quantum yields of the corresponding hydroxyquinoline derivatives were determined.

[4] = Extinction coefficient determination
Protocol: 1. Stock solutions of the peptides were prepared in doubly deionized water and concentrations were determined by UV-Vis (based on the determined extinction coefficient of the fluorophore moiety, either 1 (Sox), ε355=8247 M^−1 cm^−1 or 10u (Clk), ε360=7905 M^−1 cm^−1 in 0.1 M NaOH with 1 mM Na2EDTA). An average of the values from three separate solutions, each prepared using a different volume of the stock solution, was read on UV-Vis spectrophotometer. Purified peptide stock solutions could be stored at 4° C. for at least 6 months or −20° C. for longer periods.
b. Extinction coefficient determination. Extinction coefficients of 1 and 10u were measured in 50 mM HEPES (pH 7.0), 150 mM NaCl. The εmax values were determined by plotting absorbance at 360 nm versus concentration for four chromophore solutions with concentrations between 20 and 60 micromolar and including 1 mM MgCl2.

Row | SMILES | stability of the aldehyde group (in words) [1] | quantum yield compared with 1 (in words) ([2]; 10 μM compound, 10 mM MgCl2, pH 7.4) | excitation and emission wavelengths compared with 1 (in words) ([3]; 10 mM MgCl2, pH 7.4) | quantum yield Φ [2] | λem [3] | λex [3] | improvement in quantum yield compared to 10a ([2]; compared to 10a (Φ=0.033)) | extinction coefficient ε355 ([4]; Example 1, 50 mM HEPES (pH 7.0), 150 mM NaCl, 1 mM MgCl2) | extinction coefficient ε360 ([4]; in 0.1 M NaOH with 1 mM Na2EDTA)
1 | Cc1ccc2c(C=O)ccc(O)c2n1 [Compound 2, 5-Carbaldehyde-8-Hydroxy-2-methylquinoline, reference compound] | readily oxidized | improved quantum yield | shorter λem | – | – | – | – | – | –
2 | Oc1ccc(-n2cc(C3=CCCCC3)nn2)c2cccnc12 [Compound 10a, 8-Hydroxy-5-(4-cyclohexenyl-1H-1,2,3-triazol-1-yl)quinoline] | – | – | – | 0.033 | 522 nm | 371 nm | – | – | –
3 | Oc1ccc(-n2cc(-c3ccc(Br)cc3)nn2)c2cccnc12 [Compound 10u, 8-Hydroxy-5-(4-(4-bromophenyl)-1H-1,2,3-triazol-1-yl)quinoline] | – | – | – | 0.111 | 525 nm | 375 nm | 3.5 fold | 7,905 cm^−1M^−1 | 7905 M⁻¹ cm⁻¹
